Results: US8501959B2, “Cycloalkane[B]indole antagonists of prostaglandin D2 receptors” (Panmira Pharmaceuticals, LLC, priority 2008, dated 2013)

Assays:
[1] = target: T1, human DP2 receptor (Homo sapiens, UniProt Q9Y5Y4); test: DP2/CRTH2 binding assay (radioligand [3H]PGD2); settings: [3H]PGD2 binding, membranes of HEK293 cells expressing recombinant human DP2; read-out: hDP2
T1 construct: expressed in transfected cells
T1 sequence (Q9Y5Y4 1-395): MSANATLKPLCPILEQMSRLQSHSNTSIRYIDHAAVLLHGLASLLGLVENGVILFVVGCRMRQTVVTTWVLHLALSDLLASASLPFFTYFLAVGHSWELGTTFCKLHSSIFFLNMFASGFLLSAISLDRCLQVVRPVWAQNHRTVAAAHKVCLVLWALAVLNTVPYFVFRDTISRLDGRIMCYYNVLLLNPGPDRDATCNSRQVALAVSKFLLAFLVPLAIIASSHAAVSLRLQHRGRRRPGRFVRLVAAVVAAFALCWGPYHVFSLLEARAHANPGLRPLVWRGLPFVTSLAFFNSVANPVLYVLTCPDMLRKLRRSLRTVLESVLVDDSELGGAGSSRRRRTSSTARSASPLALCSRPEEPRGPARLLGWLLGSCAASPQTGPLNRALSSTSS
Description: The ability of a compound to bind to the human DP2 receptor is assessed via a radioligand binding assay using [^3H]PGD2. HEK293 cells stably expressing recombinant human DP2 are resuspended in 10 mM Hepes, 7.4 containing 1 mM DTT, lysed and centrifuged at 75,000×g to pellet the membranes. The membranes are resuspended in 10 mM Hepes, 7.4 containing 1 mM DTT and 10% glycerol to approximately 5 mg protein/ml. Membranes (2-10 μg protein/well) are incubated in 96-well plates with 1 nM [^3H]PGD2 and test compound in Assay Buffer (50 mM Hepes, 10 mM MnCl2, 1 mM EDTA, plus or minus 0.2% human serum albumin, pH 7.4) for 60 minutes at room temperature. The reactions are terminated by rapid filtration through Whatman GF/C glass fibre filter plates. The filter plates were pre-soaked in 0.33% polythylenimine for 30 minutes at room temperature then washed in Wash Buffer (50 mM Hepes, 0.5 M NaCl pH 7.4) prior to harvesting. After harvesting, the filter plates are washed 3 times with 1 ml cold Wash Buffer then dried. Scintillant is then added to the plates and the radioactivity retained on the filters is determined on a Packard TopCount (Perkin Elmer). Specific binding is determined as total radioactive binding minus non-specific binding in the presence of 10 μM PGD2. IC50s were determined using GraphPad prism analysis of drug titration curves.

[2] = target: T2, human DP1 receptor (Homo sapiens, UniProt Q13258); test: DP1 binding assay (radioligand [3H]BWA868C); settings: [3H]BWA868C binding, human platelet membranes; read-out: hDP1
T2 construct: tissue Biological Specialty Corporation; host or cells: human platelets, membrane preparation
T2 sequence (Q13258 1-359): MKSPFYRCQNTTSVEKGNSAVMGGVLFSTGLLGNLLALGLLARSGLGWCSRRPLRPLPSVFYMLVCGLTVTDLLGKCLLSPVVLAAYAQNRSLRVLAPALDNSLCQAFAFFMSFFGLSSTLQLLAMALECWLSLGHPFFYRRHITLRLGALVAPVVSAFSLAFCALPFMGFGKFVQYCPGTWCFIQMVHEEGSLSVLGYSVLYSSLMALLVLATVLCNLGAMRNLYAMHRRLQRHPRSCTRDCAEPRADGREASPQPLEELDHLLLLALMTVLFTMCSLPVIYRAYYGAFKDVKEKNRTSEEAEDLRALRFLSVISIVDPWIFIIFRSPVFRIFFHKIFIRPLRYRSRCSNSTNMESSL
Description: The ability of a compound to bind to the human DP1 receptor was evaluated via a radioligand membrane binding assay using the DP1 selective synthetic ligand [^3H]BWA868C. Packed human platelets (Biological Specialty Corporation), were resuspended in 6 volumes of Hepes/HBSS buffer (10 mM Hepes, 1 mM DTT in Hanks Balanced Salt Solution (HBSS), lysed and centrifuged at 75,000×g to pellet the membranes. Membranes were resuspended in Hepes/HBSS buffer to approximately 12 mg protein/ml. Membranes (20 μg protein/well) are incubated in 96-well plates with 2 nM [^3H]BWA868C and test compound in Assay Buffer (50 mM Hepes, 10 mM MnCl2, 1 mM EDTA, plus or minus 0.2% human serum albumin, pH 7.4) for 60 minutes at room temperature. The reactions are terminated by rapid filtration through Whatman GF/C glass fibre filter plates. The filter plates were pre-soaked in 0.33% polethylenimine for 30 minutes at room temperature then washed in Wash Buffer (50 mM Hepes, 0.5 M NaCl pH 7.4) prior to harvesting. After harvesting, the filter plates are washed 3 times with 1 ml cold Wash Buffer then dried. Scintillant is then added to the plates and the radioactivity retained on the filters is determined on a Packard TopCount (Perkin Elmer). Specific binding is determined as total radioactive binding minus non-specific binding in the presence of 10 μM BW A868C. IC50s were determined using GraphPad prism analysis of drug titration curves.

With `CC(C)(O)CCn1c2c(c3ccccc31)CC(N(CC(C)(C)O)S(=O)(=O)c1ccc(F)cc1)CC2` (centres unmarked) [Compound 1-4, 4-FluoroN-[9-(3-hydroxy-3-methyl-butyl)-2,3,4,9-tetrahydro-1H-carbazol-3-yl]-N-(2-hydroxy-2-methyl-propyl)-benzenesulfonamide] the IC50 [1] was > 1 µM and the IC50 [2] was > 1 µM.
With `CC(C)(O)CCn1c2c(c3ccccc31)CC(N(CC(=O)O)S(=O)(=O)c1ccc(F)cc1)CC2` (centres unmarked) [Compound 1-2, {(4-Fluoro-benzenesulfonyl)-[9-(3-hydroxy-3-methyl-butyl)-2,3,4,9-tetrahydro-1H-carbazol-3-yl]-amino}-acetic acid] the IC50 [1] was > 1 µM and the IC50 [2] was > 1 µM.
For `O=C(O)CN(C1CCc2c(c3ccccc3n2CC(=O)O)C1)S(=O)(=O)c1ccc(F)cc1` (centres unmarked) [Compound 1-1, {3-[Carboxymethyl-(4-fluoro-benzenesulfonyl)-amino]-1,2,3,4-tetrahydro-carbazol-9-yl}-acetic acid], the IC50 [1] was < 0.3 µM and the IC50 [2] was > 1 µM.
With `O=C(O)CCn1c2c(c3ccccc31)CC(N(CC(=O)O)S(=O)(=O)c1ccc(F)cc1)CC2` (centres unmarked) [Compound 1-6, 3-{3-[Carboxymethyl-(4-fluoro-benzenesulfonyl)-amino]-1,2,3,4-tetrahydro-carbazol-9-yl}-propionic acid] the IC50 [1] was > 1 µM and the IC50 [2] was > 1 µM.
In the case of `O=C(O)CCn1c2c(c3ccccc31)C[C@H](NS(=O)(=O)c1ccc(F)cc1)CC2` [Ramatroban, reference compound], the IC50 [1] is reported as > 0.3 µM and the IC50 [2] is reported as > 1 µM.
For `NC(=O)CN(C1CCc2c(c3ccccc3n2CCC(=O)O)C1)S(=O)(=O)c1ccc(F)cc1` (centres unmarked) [Compound 1-5, 3-{3-[Carbamoylmethyl-(4-fluoro-benzenesulfonyl)-amino]-1,2,3,4-tetrahydro-carbazol-9-yl}-propionic acid], the IC50 [1] was > 1 µM and the IC50 [2] was > 1 µM.
`CC(C)(O)CN(C1CCc2c(c3ccccc3n2CCC(=O)O)C1)S(=O)(=O)c1ccc(F)cc1` (centres unmarked) [Compound 1-3, 3-{3-[(4-Fluoro-benzenesulfonyl)-(2-hydroxy-2-methyl-propyl)-amino]-1,2,3,4-tetrahydro-carbazol-9-yl}-propionic acid] was tested, and the IC50 [1] was > 1 µM and the IC50 [2] was > 1 µM.
